Results published in patent US11311530B2, “Lewy body disease therapeutic agent containing pyrazoloquinoline derivative” (Eisai R&D Management Co., Ltd., priority 2017, dated 2022).

Columns and labels:
[1] = target: phosphodiesterase 9 (PDE9) (Homo sapiens, UniProt O76083); conditions: from Patent Literature 1; cited from earlier work
[2] = test system: rat with scopolamine-induced cognitive impairment; test: Novel object recognition test using rats with scopolamine-induced cognitive impairment; type: in vivo; conditions: for percentage of exploration of the novel object during T2: scopolamine 0.7 mg/kg s.c., male Long Evans rats, mean ± standard error
Protocol: A novel object recognition test using rats with scopolamine-induced cognitive impairment was performed to confirm the effect of improving cognitive impairment induced by an acetylcholine nerve disorder. The novel object recognition test is a test system for assessing cognitive function based on the spontaneous behavioral characteristic of a rodent in which the rodent spends more time exploring a novel object than a familiar object. The test method described in Ennacer etc. Behavioural Brain Research, 31 (1988) pp. 47-51 was partially modified and performed.
Six-week-old male Long Evans rats (the Institute for Animal Reproduction) were subjected to the test. For two days before the test, a process for habituating the rat to the experimental procedure was performed once daily. In the habituation process, administration of a vehicle to the rat was performed, and subsequently, the rat was placed in an empty test apparatus (40 cm×30 cm×H 45 cm) and allowed to explore for 3 minutes, was transferred into a waiting chamber (13 cm×30 cm×H 45 cm) for about 1 minute, and then was returned into the empty test apparatus again and allowed to stay for 5 minutes.
On the day of the test, an acquisition trial (T1) was performed. Compound (I) was administered orally by using a solution of 0.5% methylcellulose in 0.01 M hydrochloric acid as a vehicle 2 hours before T1. Scopolamine (Wako Pure Chemical Industries, Ltd.) was administered subcutaneously by using a saline as a vehicle at a dose of 0.7 mg/kg 30 minutes before T1. […] The behaviors of the rat during T1 and T2 were recorded by a digital video camera and the total exploration time for each object was measured manually using a stopwatch. […]
In the novel object recognition test, a percentage of exploration of the novel object during T2 is considered as an amnesia index that reflects discrimination between the familiar object and the novel object. The percentage of exploration of the novel object was calculated in accordance with the following equation. […]
The results were expressed as mean±standard error. […]

Sequence of phosphodiesterase 9 (PDE9) (O76083 whole entry): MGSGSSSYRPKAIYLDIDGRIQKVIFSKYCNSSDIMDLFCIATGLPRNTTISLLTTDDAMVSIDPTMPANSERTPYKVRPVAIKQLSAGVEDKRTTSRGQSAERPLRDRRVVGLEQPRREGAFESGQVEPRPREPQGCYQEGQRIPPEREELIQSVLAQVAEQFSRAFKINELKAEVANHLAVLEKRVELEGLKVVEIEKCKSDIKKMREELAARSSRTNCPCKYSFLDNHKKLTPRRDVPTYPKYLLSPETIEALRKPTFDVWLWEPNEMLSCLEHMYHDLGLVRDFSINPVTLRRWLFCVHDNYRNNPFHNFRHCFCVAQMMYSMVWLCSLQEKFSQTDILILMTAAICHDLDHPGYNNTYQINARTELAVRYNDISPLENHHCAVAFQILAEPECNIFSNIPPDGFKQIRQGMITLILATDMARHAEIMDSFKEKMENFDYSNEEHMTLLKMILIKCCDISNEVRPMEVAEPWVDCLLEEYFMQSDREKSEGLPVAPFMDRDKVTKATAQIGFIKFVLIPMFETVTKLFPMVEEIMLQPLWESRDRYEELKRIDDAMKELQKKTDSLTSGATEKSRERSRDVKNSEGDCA

SMILES: COc1ncc(C)c(-c2ccc3c(c2)[nH]c(=O)c2cnn([C@H]4CCOC4)c23)c1C [Compound (I), (S)-7-(2-methoxy-3,5-dimethylpyridin-4-yl)-1-(tetrahydrofuran-3-yl)-1H-pyrazolo[4,3-c]quinolin-4(5H)-one]
- PDE9 inhibitory action [1]: exhibits a PDE9 inhibitory action
- percentage of exploration of the novel object during T2 ([2]; 3.3 mg/kg orally 2 hours before T1): 68.5 ± 2.0 %
- percentage of exploration of the novel object during T2 ([2]; 10 mg/kg orally 2 hours before T1): 68.5 ± 1.6 %
- effect of improving the percentage of exploration of the novel object ([2]; at 3.3 mg/kg and 10 mg/kg, versus disease control group, Dunnett's test, p<0.05): significant effect of improving the percentage of exploration of the novel object
